In patent US10143747B2, “Breast cancer therapeutics” (IMBA—INSTITUT FÜR MOLEKULARE BIOTECHNOLOGIE GMBH, priority 2010, dated 2018):

Columns and labels:
Lin-CD24+CD49f^hi cells = experiment: FACS quantification of stem cell-enriched Lin-CD24+CD49f hi mammary population (MaSC); format: in vivo, mouse; details: MPA for 3 days
Procedure: a,b, Induction of RANKL expression by the progesterone-derivative MPA. Nulliparous wild type females were s.c. implanted with slow-release MPA pellets or treated with surgery sham. a, RANKL mRNA was determined in purified mammary epithelial cells by qRT-PCR three days after implantation. Data are shown as fold change compared to sham treatment (+/−sem) (n=3). b, In situ […] immunostaining of progesterone receptor (PR, red) and RANKL (green) in mammary epithelial cells after 3d MPA treatment. c, Induction of soluble RANKL protein assayed on isolated mammary gland epithelial cells from control, but not in prolactin receptor mutant (PRL-R KO) females on day 3 after s.c. MPA implantation. […] Proliferation was determined by in situ Ki67 immunostaining. e,f, Marked increase of the stem cell-enriched CD24^+CD49^high population (MaSC) in MPA-treated mammary glands in control but not in RANK^Δmam mammary glands. e, Representative FACS profiles showing CD24 and CD49 expression of lineage negative (CD31^− (endothelial cells) CD45^− (hematopoietic cells) […] (erythroid cells)) of mammary MaSCs from MPA- or sham-treated 8-week old virgin females. f, Quantification of MaSC-enriched CD24^+CD49^high population from mammary glands of MPA- or sham-treated virgin RANK^Δmam and littermate control females. […]

RANKL = RANKL mRNA in purified mammary epithelial cells by qRT-PCR after MPA pellet implantation; format: in vivo, mouse
Procedure: a,b, Induction of RANKL expression by the progesterone-derivative MPA. Nulliparous wild type females were s.c. implanted with slow-release MPA pellets or treated with surgery sham. a, RANKL mRNA was determined in purified mammary epithelial cells by qRT-PCR three days after implantation. Data are shown as fold change compared to sham treatment (+/−sem) (n=3). b, In situ […] immunostaining of progesterone receptor (PR, red) and RANKL (green) in mammary epithelial cells after 3d MPA treatment. c, Induction of soluble RANKL protein assayed on isolated mammary gland epithelial cells from control, but not in prolactin receptor mutant (PRL-R KO) females on day 3 after s.c. MPA implantation. Mammary glands from sham operated control litter-mates and PRL-R KO females are shown as controls. d, Epithelial proliferation in mammary glands of control littermates and RANK^Δmam females 3 days after sham treatment and MPA implantation. Proliferation was determined by in situ Ki67 immunostaining. e,f, Marked increase of the stem cell-enriched CD24^+CD49^high population (MaSC) in MPA-treated mammary glands in control but not in RANK^Δmam mammary glands. e, Representative FACS profiles showing CD24 and CD49 expression of lineage negative (CD31^− (endothelial cells) CD45^− (hematopoietic cells) […] (erythroid cells)) of mammary MaSCs from MPA- or sham-treated 8-week old virgin females. f, Quantification of MaSC-enriched CD24^+CD49^high population from mammary glands of MPA- or sham-treated virgin RANK^Δmam and littermate control females. For all MaSCs experiments mice were treated with MPA for 3 days. n=4 per group+/−sem. *P<0.05; ***P<0.001 (Student's t-test).
a-d, Induction of RANKL expression by the progesterone-derivative MPA. […] Numbers indicate amino acid residues. c, Expression of total (t) RANKL, RANKL1, RANKL2, and RANKL3 mRNA in purified mammary epithelial cells after three days MPA treatment. β-actin is shown as a control. d, Representative agarose gel of RT-PCR products as in c. e, mRNA expression of various proteases known to shed RANKL from the surface of cells. mRNA was determined in purified mammary epithelial cells by qRT-PCR three days after MPA implantation. […]
a,b, MPA induces RANKL expression in mammary epithelial cells. Nulliparous wild type females were treated with oral gavage of DMBA or oil vehicle, s.c. implanted with slow-release MPA pellets, or treated with sham surgery. a, RANKL mRNA was determined in purified mammary epithelial cells by qRT-PCR 3 days after implantation/oral gavage. […]

SMILES: CC(=O)O[C@]1(C(C)=O)CC[C@H]2[C@@H]3C[C@H](C)C4=CC(=O)CC[C@]4(C)[C@H]3CC[C@@]21C [MPA, medroxyprogesterone acetate]
- expansion of Lin-CD24+CD49f hi cells (Lin-CD24+CD49f^hi cells; RANKΔmam females): did not occur
- expansion of Lin-CD24+CD49f hi cells (Lin-CD24+CD49f^hi cells; control females): two-fold
- mRNA of proteases known to shed RANKL (MMP14, ADAM17/TACE) (RANKL; 3 days after MPA implantation, qRT-PCR): induction of MMP14 and ADAM17/TACE
- RANKL mRNA and protein expression in purified mammary epithelial cells (RANKL; 3 days after implantation/oral gavage, qRT-PCR and Western blot): induced RANKL mRNA and protein expression
- mRNA expression of RANK, OPG, PTHrP and TRAIL in isolated mammary epithelial cells (RANKL; MPA pellets implanted): not changed
- induction of RANKL mRNA in isolated mammary epithelial cells (RANKL; s.c. slow-release MPA pellets, 3 days, vs sham, wild type females): more than 2000 fold
